According to ChEMBL document CHEMBL3137440, “DNDi T. cruzi fenarimol series dataset from which preclinical candidate EPL-BS0967 was identified (see also related datasets: CHEMBL3137386 and CHEMBL2448688)”:
≈ marks a conversion by molar mass, not a printed value.

Experiments:
Trypanosoma cruzi [1] = experiment: (§1) DNDI: Chagas in Vitro; type: functional, organism-based, Tulahuen C4 (LacZ)
Trypanosoma cruzi [2] = experiment: as §1; type: functional, Tulahuen C4 (LacZ)
[3] = DNDI: Cytotoxicity against L-6 rat myoblasts from skeletal musclE; details: L6 rat skeletal muscle myoblasts, IC50
[4] = DNDI: Lipophilicity (gLogD) at pH 3; details: buffer
[5] = DNDI: Lipophilicity (gLogD) at pH 7.4; details: buffer
[6] = DNDI: Solubility in 0.01M HCl at pH 2 determined by nephelometry
[7] = DNDI: Solubility in phosphate buffer at pH 6.5 determined by nephelometry
in vitro [8] = details: human, microsomes
in vitro [9] = details: human, microsomes; remark: listed apart in the source
Cytochrome P450 3A4 = Cytochrome P450 3A4 (Homo sapiens, UniProt P08684)
Cytochrome P450 3A4, sequence (P08684 whole entry): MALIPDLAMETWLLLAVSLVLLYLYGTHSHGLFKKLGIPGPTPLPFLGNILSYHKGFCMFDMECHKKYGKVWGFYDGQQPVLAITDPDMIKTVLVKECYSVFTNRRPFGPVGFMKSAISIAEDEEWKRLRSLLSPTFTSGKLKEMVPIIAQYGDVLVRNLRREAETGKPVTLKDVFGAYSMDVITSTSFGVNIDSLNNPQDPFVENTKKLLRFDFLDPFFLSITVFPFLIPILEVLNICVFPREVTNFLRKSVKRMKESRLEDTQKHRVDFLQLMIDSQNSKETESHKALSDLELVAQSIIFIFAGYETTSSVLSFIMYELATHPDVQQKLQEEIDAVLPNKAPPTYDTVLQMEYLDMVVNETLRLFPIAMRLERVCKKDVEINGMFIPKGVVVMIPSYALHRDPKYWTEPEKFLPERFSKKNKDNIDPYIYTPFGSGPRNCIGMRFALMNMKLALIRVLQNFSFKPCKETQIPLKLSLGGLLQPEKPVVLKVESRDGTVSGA

in vitro [10] = details: human, microsomes; remark: listed apart in the source
[11] = Trypanosoma cruzi, Tulahuen C4 (LacZ)

| Compound | IC50 (Trypanosoma cruzi [1]; [11]) [nM] | IC90 (Trypanosoma cruzi [2]; [11]) [nM] | IC50 [3] [nM] | solubility kinetic [6] [µg/mL] | solubility kinetic [7] [µg/mL] | also measured |
| --- | --- | --- | --- | --- | --- | --- |
| FC(F)(F)c1ccc(N(c2cccnc2)C2CCN(c3ccc(Cl)cc3)CC2)cc1 | 15 | 27 | > 100000 | > 100 | < 1.6 | IC50 (Trypanosoma cruzi [1]): 22 nM; IC90 (Trypanosoma cruzi [2]): 25 nM; chromatographic logD ([4]; pH 3): > 5.3; chromatographic logD ([5]; pH 7.4): > 5.3; half-life (in vitro [8]): 51 min; microsomal CLint (in vitro [9]): 34 µL/min/mg |
| FC(F)(F)c1ccc(N(c2cccnc2)C2CCN(c3ccc(C(F)(F)F)nc3)CC2)cc1 | – | 32 | – | – | – | – |
| FC(F)(F)c1ccc(N(c2cccnc2)C2CCN(c3ccccn3)CC2)cc1 | 24 | 51 | – | – | – | – |
| FC(F)(F)c1ccc(N(c2cccnc2)C2CCN(c3ccc(Cl)cn3)CC2)cc1 | 39 | 83 | – | – | – | – |
| CS(=O)(=O)c1ccc(N2CCC(N(c3ccc(Cl)cc3)c3cccnc3)CC2)cc1 | 2.18 | 5.7 | – | > 100 | < 1.6 | chromatographic logD ([4]; pH 3): 2.3; chromatographic logD ([5]; pH 7.4): 3.9; IC50 (Cytochrome P450 3A4): 2000 nM; half-life (in vitro [8]): 13.1 min; hepatic extraction ratio (in vitro [10]): 0.88; microsomal CLint (in vitro [9]): 132 µL/min/mg |
| CS(=O)(=O)c1ccc(N2CCC(N(c3ccc(C#N)cc3)c3cccnc3)CC2)cc1 | 2.35 | 6.6 | > 100000 | – | 1.6 (≈ 3.7 µM) | chromatographic logD ([4]; pH 3): 2.7; chromatographic logD ([5]; pH 7.4): 3; half-life (in vitro [8]): 111 min; hepatic extraction ratio (in vitro [10]): 0.47; microsomal CLint (in vitro [9]): 15.6 µL/min/mg |
| CC(C)(C)N1CCC(N(c2ccc(C(F)(F)F)cc2)c2cccnc2)CC1 | 603 | 1070 | – | – | – | – |
| O=C(c1ccccc1)N1CCC(N(c2ccc(C(F)(F)F)cc2)c2cccnc2)CC1 | 7.46 | 16.6 | – | – | – | – |
| FC(F)(F)c1ccc(N(c2cccnc2)C2CCN(Cc3ccccc3C(F)(F)F)CC2)cc1 | 9 | 36 | – | > 100 | 1.6 (≈ 3.34 µM) | chromatographic logD ([4]; pH 3, logD): 2.7; chromatographic logD ([5]; pH 7.4, logD): > 5.3; half-life (in vitro [8]; t (1 / 2)): 18.7 min; microsomal CLint (in vitro [9]; CLint): 92.8 µL/min/mg |
| Fc1ccccc1CN1CCC(N(c2ccc(C(F)(F)F)cc2)c2cccnc2)CC1 | 21 | 40 | – | – | – | – |
| Cc1ccccc1CN1CCC(N(c2ccc(C(F)(F)F)cc2)c2cccnc2)CC1 | 7 | 19 | – | > 100 | – | chromatographic logD ([4]; pH 3, logD): 2; chromatographic logD ([5]; pH 7.4, logD): > 5.3; half-life (in vitro [8]; t (1 / 2)): 14.1 min; microsomal CLint (in vitro [9]; CLint): 123 µL/min/mg |
| FC(F)(F)c1ccc(N(c2cccnc2)C2CCN(c3ccccc3C(F)(F)F)CC2)cc1 | 15 | 36 | – | – | – | – |
| O=C(c1c(F)cccc1F)N1CCC(N(c2ccc(C(F)(F)F)cc2)c2cccnc2)CC1 | 2 | 9 | 48900 | – | – | – |
| FC(F)(F)c1ccc(N(c2cccnc2)C2CCN(c3ccccc3)CC2)cc1 | 14 | 30 | 57400 | > 100 | < 1.6 | chromatographic logD ([4]; pH 3): 4.7; chromatographic logD ([5]; pH 7.4): > 5.3; half-life (in vitro [8]): 29.7 min; microsomal CLint (in vitro [9]): 58.4 µL/min/mg |
| FC(F)(F)c1ccc(N(c2cccnc2)C2CCN(Cc3cccc(C(F)(F)F)c3)CC2)cc1 | 38 | 72 | 52100 | > 100 | 3.1 (≈ 6.47 µM) | chromatographic logD ([4]; pH 3, logD): 2.5; chromatographic logD ([5]; pH 7.4, logD): > 5.3; half-life (in vitro [8]; t (1 / 2)): 26 min; microsomal CLint (in vitro [9]; CLint): 66 µL/min/mg |
| Cc1ccc(CN2CCC(N(c3ccc(C(F)(F)F)cc3)c3cccnc3)CC2)cc1 | 67 | > 100 | 45600 | – | – | – |
| FC(F)(F)c1ccc(CN2CCC(N(c3ccc(C(F)(F)F)cc3)c3cccnc3)CC2)cc1 | 33 | 80 | – | – | – | – |
| COc1cccc(CN2CCC(N(c3ccc(C(F)(F)F)cc3)c3cccnc3)CC2)c1 | 56 | 90 | 36800 | – | – | – |

| Compound | IC50 (Trypanosoma cruzi [1]; [11]) [nM] | IC90 (Trypanosoma cruzi [2]; [11]) [nM] | IC50 [3] [nM] | solubility kinetic [6] [µg/mL] | solubility kinetic [7] [µg/mL] | also measured |
| --- | --- | --- | --- | --- | --- | --- |
| COc1ccc(CN2CCC(N(c3ccc(C(F)(F)F)cc3)c3cccnc3)CC2)cc1 | 57 | 92 | 16300 | > 100 | 6.3 (≈ 14.3 µM) | chromatographic logD ([4]; pH 3, logD): 2; chromatographic logD ([5]; pH 7.4, logD): 4.9; half-life (in vitro [8]; t (1 / 2)): 31 min; microsomal CLint (in vitro [9]; CLint): 56 µL/min/mg |
| Cc1cccc(CN2CCC(N(c3ccc(C(F)(F)F)cc3)c3cccnc3)CC2)c1 | 44 | 79 | 42900 | – | – | – |
| FC(F)(F)c1ccc(N(c2cccnc2)C2CCN(c3nccs3)CC2)cc1 | – | 31 | 41500 | > 100 | 1.6 (≈ 3.96 µM) | chromatographic logD ([4]; pH 3): 3.1; chromatographic logD ([5]; pH 7.4): 4.3; half-life (in vitro [8]): 10.8 min; microsomal CLint (in vitro [9]): 161 µL/min/mg |
| FC(F)(F)c1ccc(N(c2cccnc2)C2CCN(c3cccc(C(F)(F)F)c3)CC2)cc1 | 210 | 312 | > 100000 | – | – | – |
| FC(F)(F)c1ccc(N(c2cccnc2)C2CCN(c3ccc(C(F)(F)F)cn3)CC2)cc1 | – | – | – | – | – | IC50 (Trypanosoma cruzi [1]): 19.7 nM; IC90 (Trypanosoma cruzi [2]): > 100 nM |
| Fc1cnc(N2CCC(N(c3ccc(C(F)(F)F)cc3)c3cccnc3)CC2)nc1 | 22 | 28 | 53100 | > 100 | < 1.6 | chromatographic logD ([4]; pH 3): 4.2; chromatographic logD ([5]; pH 7.4): 4.9; half-life (in vitro [8]): 49 min; microsomal CLint (in vitro [9]): 36 µL/min/mg |
| FC(F)(F)c1ccc(N(c2cccnc2)C2CCN(c3ncccn3)CC2)cc1 | 17 | 23 | 53900 | > 100 | 1.6 (≈ 4.01 µM) | chromatographic logD ([4]; pH 3): 3.5; chromatographic logD ([5]; pH 7.4): 4.4; half-life (in vitro [8]): 8.8 min; microsomal CLint (in vitro [9]): 196 µL/min/mg |
| Cc1ccc(N2CCC(N(c3ccc(C(F)(F)F)cc3)c3cccnc3)CC2)cn1 | 151 | 340 | > 100000 | – | – | – |
| Cc1cncc(N2CCC(N(c3ccc(C(F)(F)F)cc3)c3cccnc3)CC2)c1 | 9 | 27 | – | – | – | – |
| CC(C)(O)CN1CCC(N(c2ccc(C(F)(F)F)cc2)c2cccnc2)CC1 | 11 | 30 | – | – | – | – |
| CN(C)S(=O)(=O)c1ccccc1N1CCC(N(c2ccc(C#N)cc2)c2cccnc2)CC1 | 10 | 28 | – | – | – | – |
| CC(C)(C)OC(=O)N1CCC(N(c2ccc(Cl)cc2)c2cccnc2)CC1 | 1.03 | 3.26 | 52800 | – | – | – |
| CC(C)(C)OC(=O)N1CCC(N(c2ccc(C(F)(F)F)cc2)c2cccnc2)CC1 | 5.12 | 9.9 | 22200 | – | – | – |
| CN(C)S(=O)(=O)c1cc(C(F)(F)F)ccc1N1CCC(N(c2ccc(C#N)cc2)c2cccnc2)CC1 | 6 | 11 | > 100000 | – | – | – |
| CC(C)(O)CN1CCC(N(c2ccc(C#N)cc2)c2cccnc2)CC1 | 27 | 71 | > 100000 | > 100 | > 100 | chromatographic logD ([4]; pH 3, logD): 0.7; chromatographic logD ([5]; pH 7.4, logD): 2.2; half-life (in vitro [8]; t (1 / 2)): 142 min; microsomal CLint (in vitro [9]; CLint): 12.2 µL/min/mg |
| N#Cc1ccc(N(c2cccnc2)C2CCN(c3ccc(C(F)(F)F)cc3C#N)CC2)cc1 | 2 | 4 | > 100000 | – | – | – |
| FC(F)(F)c1ccc(N2CCC(N(c3ccc(C(F)(F)F)cc3)c3cncnc3)CC2)cc1 | 7 | 11 | 76500 | < 1.6 | 3.1 (≈ 6.65 µM) | chromatographic logD ([4]; pH 3): > 5.3; chromatographic logD ([5]; pH 7.4): 5.2; half-life (in vitro [8]): 25.7 min; microsomal CLint (in vitro [9]): 67.5 µL/min/mg |
